Assay results from patent publication US20260200946A1, “KRAS(G12V) INHIBITORS” (Ranok Therapeutics (Hangzhou) Co. Ltd., priority 2022, published 2026).

test system: NCIH727 cells; experiment: Cancer cell line proliferation (CellTiter-Glo), NCI-H727; type: cell-based; settings: Homo sapiens, 72 h, NCIH727 lung carcinoid, heterozygous G12V
Experimental: Cell lines were cultured essentially according to ATCC recommendations.
SW620 and NCIH727 cells were plated in 384-well tissue culture plates at 1,000 cells/well and incubated at 37° C./5% CO2 for 72 hr in 40 μl of media. […] Each cell line was then treated with test compounds at various concentrations with a final concentration of 0.5% DMSO/well, and then incubated at 37° C./5% CO2 for 72 hr. 40 μl of CellTiter-Glo® Reagent (Promega Corporation, Madison, WI) was added to each well and processed according manufacturer's protocol. Results were analyzed and IC50 values were calculated in GraphPad 8.0 software.

| SMILES | EC50 [nM] |
| --- | --- |
| C#Cc1c(F)ccc2cc(O)cc(-c3nc(OC)c4c(N5CC6CCC(C5)N6C(=O)C[C@H](C)C#N)nc(OCC5(CN6CC7CC7C6)CC5)nc4c3F)c12 (single isomer, unassigned) [Example 178] | 100 to 1000 |
| C#Cc1c(F)ccc2cc(O)cc(-c3nc(OC)c4c(N5CC6CCC(C5)N6C(=O)C5(F)CC5)nc(OCC5(CN6CCC(F)CC6)CC5)nc4c3F)c12 [Example 66] | 100 to 1000 |
| C#Cc1c(F)ccc2cc(O)cc(-c3nc(OC)c4c(N5CC6CCC(C5)N6C(=O)NCC(C)(C)F)nc(OCC5(CN6CCC(F)CC6)CC5)nc4c3F)c12 [Example 67] | 100 to 1000 |
| C#Cc1c(F)ccc2cc(O)cc(-c3nc(OC)c4c(N5CC6CCC(C5)N6C(=O)N[C@H]5C[C@H]5F)nc(OCC5(CN6CCC(F)CC6)CC5)nc4c3F)c12 [Example 68] | > 1000 |
| C#Cc1c(F)ccc2cc(O)cc(-c3nc(OC)c4c(N5CC6CCC(C5)N6C(=O)[C@H]5CC5(F)F)nc(OCC5(CN6CCC(F)CC6)CC5)nc4c3F)c12 [Example 69] | < 100 |
| C#Cc1c(F)ccc2cc(O)cc(-c3nc(OC)c4c(N5CC6CCC(C5)N6CC5COC5)nc(OCC5(CN6CCC(F)CC6)CC5)nc4c3F)c12 [Example 70] | > 1000 |
| C#Cc1c(F)ccc2cc(O)cc(-c3nc(OC)c4c(N5CC6CCC(C5)N6C(=O)[C@@H]5CC5(F)F)nc(OCC5(CN6CCC(F)CC6)CC5)nc4c3F)c12 [Example 72] | 100 to 1000 |
| C#Cc1c(F)ccc2cc(O)cc(-c3nc(OC)c4c(N5CC6CCC(C5)N6C(=O)N[C@@H]5C[C@H]5F)nc(OCC5(CN6CCC(F)CC6)CC5)nc4c3F)c12 [Example 73] | 100 to 1000 |
| C#Cc1c(F)ccc2cc(O)cc(-c3nc(C#C)c4c(N5CC6CCC(C5)N6C(=O)NC(C)(C)C)nc(OCC5(CN6CCC(F)CC6)CC5)nc4c3F)c12 [Example 74] | 100 to 1000 |
| C#Cc1c(F)ccc2cc(O)cc(-c3nc(OC)c4c(N5CC6CCC(C5)N6C(=O)NCC5(F)COC5)nc(OCC5(CN6CCC(F)CC6)CC5)nc4c3F)c12 [Example 75] | 100 to 1000 |
| C#Cc1c(F)ccc2cc(O)cc(-c3nc(OC)c4c(N5CC6CCC(C5)N6C(=O)NCC(F)(F)CO)nc(OCC5(CN6CCC(F)CC6)CC5)nc4c3F)c12 [Example 76] | 100 to 1000 |
| C#Cc1c(F)ccc2cc(O)cc(-c3nc(OC)c4c(N5CC6CCC(C5)N6C(=O)C5C[C@H]5F)nc(OCC5(CN6CCC(F)CC6)CC5)nc4c3F)c12 (some centres unmarked) [Example 77] | < 100 |
| C#Cc1c(F)ccc2cc(O)cc(-c3nc(OC)c4c(N5CC6CCC(C5)N6C(=O)[C@H]5C[C@@H]5F)nc(OCC5(CN6CCC(F)CC6)CC5)nc4c3F)c12 [Example 78] | 100 to 1000 |
| C#Cc1c(F)ccc2cc(O)cc(-c3nc(OC)c4c(N5CC6CCC(C5)N6C(=O)NC5CCC(F)(F)C5)nc(OCC5(CN6CCC(F)CC6)CC5)nc4c3F)c12 (centres unmarked) [Example 79] | 100 to 1000 |
| C#Cc1c(F)ccc2cc(O)cc(-c3nc(OC)c4c(N5CC6CCC(C5)N6C(=O)C5C[C@H]5C#N)nc(OCC5(CN6CCC(F)CC6)CC5)nc4c3F)c12 (some centres unmarked) [Example 80] | < 100 |
| C#Cc1c(F)ccc2cc(O)cc(-c3nc(OC)c4c(N5CC6CCC(C5)N6C(=O)N[C@H]5CCC(F)(F)C5)nc(OCC5(CN6CCC(F)CC6)CC5)nc4c3F)c12 [Example 81] | < 100 |
| C#Cc1c(F)ccc2cc(O)cc(-c3nc(OC)c4c(N5CC6CCC(C5)N6C(=O)N[C@@H]5CCC(F)(F)C5)nc(OCC5(CN6CCC(F)CC6)CC5)nc4c3F)c12 [Example 82] | 100 to 1000 |
| C#Cc1c(F)ccc2cc(O)cc(-c3nc(OC)c4c(N5CC6CCC(C5)N6C(=N)NCC(F)(F)F)nc(OCC5(CN6CCC(F)CC6)CC5)nc4c3F)c12 [Example 85] | > 1000 |

same assay, conditions: NCIH727 lung carcinoid, heterozygous G12V, 72 hr

| SMILES | EC50 [nM] |
| --- | --- |
| C#Cc1c(F)ccc2cc(O)cc(-c3nc(OC)c4c(N5CC6CCC(C5)N6C(=O)C5C[C@H]5C#N)nc(OCC5(CN6CCC(F)CC6)CC5)nc4c3F)c12 (some centres unmarked) [Example 83] | 100 to 1000 |
| C#Cc1c(F)ccc2cc(O)cc(-c3nc(OC)c4c(N5CC6CCC(C5)N6C(=O)C5C[C@H]5C#N)nc(OCC5(CN6CCC(F)CC6)CC5)nc4c3F)c12 (some centres unmarked) [Example 84] | < 100 |
